Source: patent publication US9623002B2, “Pharmaceutical compositions of Anisomelic acid and the use thereof” (priority 2012, dated 2017)
Entries after “also recorded” stand apart in the source; their conditions may differ.

How the values were obtained:
c33a cells [1] = assay: His-tag E6 plasmid transfection of c33a cells, Western blot and FACS; format: cell-based; settings: 70 μM AA
Method: c33a cells were pelleted and resuspended in OPTIMEM (Gibco, Invitrogen Foundation, Washington D.C., USA) and electroporated with mock or His-tag E6 plasmid at 220 V and 975 μF. Twenty four hours post-transfection, the culture medium was changed and the cells were treated with AA or left untreated, after which the cells were cultured for another 24 h or 48 h for further analysis adopting Western blotting and cell death assay by FACS.

Solubility = format: physicochemical
SiHa cells [2] = assay: PE active caspase-3 apoptosis assay by FACS; format: cell-based
Method: (§1) SiHa cells were treated with 0-50 μM AA or solvent control at 10 μM interval. […] Fourty eight hours later, the cells were collected and analyzed for apoptosis and/or necrosis. Activated caspase-3 in cells was labeled with phyco-erythrin-conjugated antibody according to manufacturer's protocol (PE Active Caspase-3 Apoptosis Kit; BD Pharmingen, San Diego, Calif.) and analyzed by FACSCalibur flow cytometer (FL-2, FSC, BD Pharmingen). SiHa cells were also tested with 40 μM AA and AA emulsion for 24 and 48 h. The cells were collected and analyzed for apoptosis adopting PE active caspase-3 assay by FACS.

[3] = system: SiHa cells with p53 down-regulated by p53-shRNA; assay: RNA interference: p53-shRNA SiHa cells treated with AA; format: cell-based
Method: (§2) Cells were synchronized by serum-starvation (1% serum) for 48 h and then cultured in medium containing 10% FCS for 24 h. After this, the cells were incubated with 0, 20 and 40 μM AA for 24. These doses were chosen since apoptosis induction was highest at 40 μM (the dose was limited to 40 μM in the following studies). The cells were collected and disrupted and the nuclei labelled for DNA content with PI by re-suspension in sodium citrate buffer [40 mM Na-citrate, 0.3% Triton X-100, 50 μg/ml PI (Sigma-Aldrich)]. After incubation at room temperature for 10 min, the samples were immediately analyzed by FACSCalibur flow cytometry.
The pSUPER vector (SEQ ID NO: 1) (Oligoengine, Seattle, Wash., USA) for expression of human p53 targeted shRNA (5′[…] AGUCUU3′, Brummelkamp et al., 2002) was kindly provided by Dr. Pia Roos-Mattjus. The scramble (Scr) pSUPER vector (SEQ ID NO: 2) (5′GCG CGC TTT GTA GGA TTC G3′, Ostling et al., 2007) was transfected to control cells. Trypsinized SiHa cells were transfected with the shRNA expression plasmids by electroporation in Opti-MEM media (Gibco, Calif., USA). Twenty four hours post-transfection, the culture medium was changed and the cells were treated with AA or left untreated, after which the cells were cultured for another 24 h or 48 h. The efficiency of the shRNA expression vector was determined by Western blotting for p53 expression.
Whole cell lysates were prepared by lysing the cells in Laemmli sample buffer (Laemmli, 1970) and boiling the samples for 10 min after which proteins were separated in 12.5-15% SDS-PAGE. Western blotting was performed using antibodies against poly (ADP-ribose) polymerase (clone C-2-10; Sigma-Aldrich), Bid, Bax, caspase 8, caspase 9, caspase 3, SAPK/JNK, Phospho SAPK/JNK (Thr183/Tyr185), cIAP2 (Enzo Lifesciences), Akt, Phospho Akt(Ser473) (Cell Signalling Technology, Davers, Mass., USA), p21, Bcl-xL (Santa Cruz Biotechnology, Inc, Santa Cruz, Calif.), β-actin (clone AC-40; Sigma-Aldrich) and p53 (clone DO-1; BD Pharmingen). […]

[4] = system: Mouse Embryonic Fibroblasts (MEF); assay: Cell death analysis in MEF cells; format: cell-based; settings: non-cancerous MEF cells, 40 μM AA
Method: as §1, with “Pharmingen).” for “Pharmingen). SiHa cells were also tested with 40 μM AA and AA emulsion for 24 and 48 h. The cells were collected and analyzed for apoptosis adopting PE active caspase-3 assay by FACS.”
(§3) HeLa, Caski, c33a, MCF7, MDA-MB-231 and MEF cells were treated with 0 and 40 μM AA. Forty eight hours later, the cells were collected and analyzed for apoptosis.

SiHa cells [5] = assay: MTT cytotoxicity assay; format: cell-based; settings: 50 μM AA, preliminary studies, unpublished data
MCF7 cells = assay: Apoptosis analysis in MCF7 cells; format: cell-based; settings: breast cancer MCF7 cells (p53+), 40 μM AA, 48 h
Method: as §1, with “Pharmingen).” for “Pharmingen). SiHa cells were also tested with 40 μM AA and AA emulsion for 24 and 48 h. The cells were collected and analyzed for apoptosis adopting PE active caspase-3 assay by FACS.”
as §3

SiHa cells [6] = assay: Cell cycle analysis of synchronized cells (PI, flow cytometry); format: cell-based; settings: 24 h
Method: as §2

MDA-MB-231 cells = assay: Apoptosis analysis in MDA-MB-231 cells; format: cell-based; settings: breast cancer MDA-MB-231 cells (p53−), 40 μM AA, 48 h
Method: as §1, with “Pharmingen).” for “Pharmingen). SiHa cells were also tested with 40 μM AA and AA emulsion for 24 and 48 h. The cells were collected and analyzed for apoptosis adopting PE active caspase-3 assay by FACS.”
as §3

Caski cells = assay: Apoptosis analysis in Caski cells; format: cell-based; settings: HPV positive Caski cells (p53+), 40 μM AA, 48 h
Method: as §1, with “Pharmingen).” for “Pharmingen). SiHa cells were also tested with 40 μM AA and AA emulsion for 24 and 48 h. The cells were collected and analyzed for apoptosis adopting PE active caspase-3 assay by FACS.”
as §3

c33a cells [7] = assay: Apoptosis analysis in c33a cells; format: cell-based; settings: HPV negative c33a cells (p53−), 40 μM AA, 48 h
Method: as §1, with “Pharmingen).” for “Pharmingen). SiHa cells were also tested with 40 μM AA and AA emulsion for 24 and 48 h. The cells were collected and analyzed for apoptosis adopting PE active caspase-3 assay by FACS.”
as §3

SiHa cells [8] = assay: Propidium iodide detection of permeabilized (necrotic) cells; format: cell-based; settings: AA doses greater than 40 μM
Method: For detection of permeabilized (necrotic) cells, the cells were trypsinized and resuspended in 50 μg/ml Propidium Iodide (PI) (Sigma-Aldrich) in PBS for 10 minutes at room temperature. The samples were analyzed by flow cytometry.

HeLa cells = assay: Apoptosis analysis in HeLa cells; format: cell-based; settings: HPV positive HeLa cells (p53+), 40 μM AA, 48 h
Method: as §1, with “Pharmingen).” for “Pharmingen). SiHa cells were also tested with 40 μM AA and AA emulsion for 24 and 48 h. The cells were collected and analyzed for apoptosis adopting PE active caspase-3 assay by FACS.”
as §3

[9] = system: caspase-9, caspase-8, caspase-3 and PARP; assay: Western blotting for cleavage of caspases and PARP; format: cell-based; settings: SiHa lysates
Method: Whole cell lysates were prepared by lysing the cells in Laemmli sample buffer (Laemmli, 1970) and boiling the samples for 10 min after which proteins were separated in 12.5-15% SDS-PAGE. Western blotting was performed using antibodies against poly (ADP-ribose) polymerase (clone C-2-10; Sigma-Aldrich), Bid, Bax, caspase 8, caspase 9, caspase 3, SAPK/JNK, Phospho SAPK/JNK (Thr183/Tyr185), cIAP2 (Enzo Lifesciences), Akt, Phospho Akt(Ser473) (Cell Signalling Technology, Davers, Mass., USA), p21, Bcl-xL (Santa Cruz Biotechnology, Inc, Santa Cruz, Calif.), β-actin (clone AC-40; Sigma-Aldrich) and p53 (clone DO-1; BD Pharmingen). Horseradish peroxidase-conjugated secondary antibodies were obtained from Southern Biotechnology Associates (Birmingham, Ala.), Promega (Madison, Wis.) and Amersham Biosciences (Freiburg, Germany). The results were visualized using the ECL method (Amersham Biosciences) on X-ray film. The presented Western blot results are representative of at least three independent experiments.

SiHa cells [10] = assay: Mitochondrial depolarization by TMRM labeling; format: cell-based; settings: 20-40 μM AA, 8-48 h
Method: Tetramethylrhodamine, methyl ester (TMRM, Invitrogen, Cergy Pontoise, France) was stored as 20 mM dimethylsulfoxide stock and diluted in medium before use. The cells were incubated in 20 nM tetramethylrhodamine for 10 min in 37° C. water bath. The cells were placed on ice and analyzed immediately by FACSCalibur flow cytometry.

C=C1C(=O)O[C@H]2/C=C(\C)CC/C=C(\C(=O)O)CC/C=C(\C)CC[C@H]12 [AA, Anisomelic acid]
AA-induced apoptosis after E6 transfection (c33a cells [1]; c33a cells transfected with His-tag E6 vs mock): rescued c33a cells from apoptsis significantly | apoptosis induction (c33a cells [1]; c33a cells): undergo apoptosis | solubility in DMSO and hot ethanol (Solubility): dissolves | solubility in water or other aqueous solvents (Solubility): mostly insoluble | time at which maximum percentage of apoptosis was achieved (SiHa cells [2]; SiHa cells): 48 h | cells that contained activated caspase-3 as a measure of apoptosis (SiHa cells [2]; SiHa, 40 μM AA, 48 h): marked activation of caspase-3 | caspase-3 cleavage (SiHa cells [2]; SiHa, AA doses greater than 40 μM): reduced caspase-3 cleavage dramatically | percentage of AA-induced apoptosis (caspase-3 activation, flow cytometry) ([3]; SiHa cells in the absence of p53 expression, 40 μM AA): did not observe any significant decrease | induction of p53 and p21 proteins by AA ([3]; p53-shRNA SiHa cells, 40 μM & 20 μM AA respectively): abrogated | AA-induced cell cycle arrest ([3]; p53-shRNA SiHa cells, 24 h after start of AA treatment): no longer accumulated at the G2/M phase | cell death [4]: failed to induce cell death | killing (SiHa cells [5]): ≥ 95% | apoptosis induction (MCF7 cells): failed to induce effective apoptosis | cell cycle distribution (SiHa cells [6]; 20 and 40 μM AA): accumulated at the G2/M phase | dose at which G2/M arrest occurred more effectively (SiHa cells [6]): 20 µM | apoptosis induction (MDA-MB-231 cells): failed to induce effective apoptosis | apoptosis induction (Caski cells): effectively induced apoptosis | apoptosis induction (c33a cells [7]): significantly less; also recorded: do not undergo apoptosis | cell permeabilization by PI labeling (necrotic cell death) (SiHa cells [8]): could not detect increased cell permeabilization | apoptosis induction (HeLa cells): effectively induced apoptosis | cleavage of caspase-3 and PARP ([9]; 20-40 μM AA): induced the cleavage of caspase-3 and poly-ADP-ribose polymerase (PARP) | cleavage of procaspase-9 into 35/37 kDa fragments ([9]; 20 and 40 μM AA): seen after 12 h incubation | cleavage of procaspase-8 ([9]; AA treatment): observed abundantly only after 24 h | mitochondrial membrane depolarization (SiHa cells [10]): occured in a time-dependent manner

Z-VAD.fmk [reference compound]
effect on AA-induced caspase-3 activation (SiHa cells [2]; SiHa, pre-incubation with 40 μM Z-VAD.fmk prior to 40 μM AA, data not shown): reversed caspase-3 activation and apoptotic cell morphology
